Laboratory results reported in US11559538B2, “Substituted 1,2-oxaborolan-2-ols as PDE4 inhibitors” (Pfizer Inc., priority 2018, dated 2023).
Read-outs that look alike come from different tables or passages of the source.

Experiments:
[1] = target: PDE4B (aa 152-484, Uniprot ID Q07343) (Homo sapiens (Human), UniProt Q07343); assay: PDE4 SPA assay (scintillation proximity assay); type: biochemical; conditions: read-out: PDE4B2 IC50
Procedure, shortened: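 PDE4B (aa 152-484, ~81.6 pM) preincubated ~10 min with compound, then 1 μM ³H/unlabeled cAMP added in Tris pH 7.5, 1.3 mM MgCl2, 0.004% Brij 35, ~2% DMSO; 30 min at RT. Product captured on SPA beads and counted; IC50 by four-parameter logistic fit.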

IFNγ = assay: Cytokine assay: IFNγ release from PHA-L stimulated human PBMCs; type: cell-based
Procedure, shortened: (§1)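 Thawed human PBMCs (about 250,000 per well) preincubated with compound (about 10 μM down by 4-fold dilution, 0.25% DMSO), then stimulated with 3.5 μg/mL PHA-L for 48 h at 37 °C. IL-4, IL-13 and IFNγ in supernatant measured by HTRF; IC50 from four-parameter logistic fit.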

IL-4 = assay: Cytokine assay: IL-4 release from PHA-L stimulated human PBMCs; type: cell-based; conditions: read-out: IL4 IC50
Procedure, shortened: as §1

IL-13 = assay: Cytokine assay: IL-13 release from PHA-L stimulated human PBMCs; type: cell-based; conditions: read-out: IL13 IC50
Procedure, shortened: as §1

PDE4B (aa 152-484, Uniprot ID Q07343), sequence (Q07343 324-656): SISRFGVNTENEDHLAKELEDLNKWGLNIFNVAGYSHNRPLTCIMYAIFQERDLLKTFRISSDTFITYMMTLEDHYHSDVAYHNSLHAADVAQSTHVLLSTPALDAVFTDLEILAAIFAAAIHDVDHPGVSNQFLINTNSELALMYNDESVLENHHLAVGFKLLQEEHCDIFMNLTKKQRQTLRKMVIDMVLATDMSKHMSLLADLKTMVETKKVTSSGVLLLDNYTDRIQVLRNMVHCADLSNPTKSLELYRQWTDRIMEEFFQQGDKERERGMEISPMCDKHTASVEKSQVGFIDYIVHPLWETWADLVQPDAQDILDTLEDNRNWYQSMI

| SMILES | IC50 [1] | IC50 (IFNγ; Homo sapiens, PBMC) | IC50 (IL-4; Homo sapiens, PBMC) | IC50 (IL-13; Homo sapiens, PBMC) | IC50 (IL-13) | IC50 (IFNγ) | IC50 (IL-4) |
| --- | --- | --- | --- | --- | --- | --- | --- |
| COc1ccc(-c2cncc(C3COB(O)C3)c2)c(F)c1OC (stereo not shown) [Example 107, 4-(5-(2-fluoro-3,4-dimethoxyphenyl)pyridin-3-yl)-1,2-oxaborolan-2-ol] | 2.41 nM | 4.17 nM | 27.1 nM |  | 613 nM |  |  |
| CCOc1cc(-c2cncc(C3COB(O)C3)c2)cc(F)c1OC (single isomer, unassigned) [Example 12, 4-(5-(3-ethoxy-5-fluoro-4-methoxyphenyl)pyridin-3-yl)-1,2-oxaborolan-2-ol] | 1.08 nM |  |  |  | 162 nM | 0.99 nM | 2.32 nM |
| CCCOc1cc(-c2cncc(C3COB(O)C3)c2)ccc1OC (stereo not shown) [Example 34, 4-(5-(4-methoxy-3-propoxyphenyl)pyridin-3-yl)-1,2-oxaborolan-2-ol] | 0.52 nM | 1.39 nM | 14.3 nM | 309 nM |  |  |  |
| CCOc1cc(-c2cncc(C3COB(O)C3)c2)cc(Cl)c1OC (single isomer, unassigned) [Example 13, 4-(5-(3-chloro-5-ethoxy-4-methoxyphenyl)pyridin-3-yl)-1,2-oxaborolan-2-ol] | 0.97 nM |  |  |  | 166 nM | 4.89 nM | 5.98 nM |
| COc1ccc(-c2cccc(C3COB(O)C3)c2)cc1OCC1CC1 (stereo not shown) [Example 165, 4-(3′-(cyclopropylmethoxy)-4′-methoxy-[1,1′-biphenyl]-3-yl)-1,2-oxaborolan-2-ol] | 2.11 nM | 3.25 nM | 128 nM | 990 nM |  |  |  |
| CCOc1cc(-c2cncc(C3COB(O)C3)c2)c(C)cc1OC (stereo not shown) [Example 69, 4-(5-(5-ethoxy-4-methoxy-2-methylphenyl)pyridin-3-yl)-1,2-oxaborolan-2-ol] | 4.39 nM | 3.84 nM | 6.51 nM | 373 nM |  |  |  |
| CCOc1cc(-c2cncc(C3COB(O)C3)c2C)c(F)cc1OC (single isomer, unassigned) [Example 142, 4-(5-(5-ethoxy-2-fluoro-4-methoxyphenyl)-4-methylpyridin-3-yl)-1,2-oxaborolan-2-ol] | 2.53 nM | 2.04 nM | 4.5 nM | 1040 nM |  |  |  |
| COc1ccc(-c2cncc(C3COB(O)C3)c2)cc1OCCO (single isomer, unassigned) [Example 8, 4-(5-(3-(2-hydroxyethoxy)-4-methoxyphenyl)pyridin-3-yl)-1,2-oxaborolan-2-ol] | 2.42 nM |  |  |  | 25 nM | 1.2 nM | 0.76 nM |
| CCCOc1cc(-c2cncc(C3COB(O)C3)c2)ccc1OC(F)F (single isomer, unassigned) [Example 17, 4-(5-(4-(difluoromethoxy)-3-propoxyphenyl)pyridin-3-yl)-1,2-oxaborolan-2-ol] | 0.28 nM | 0.47 nM | 0.65 nM | 138 nM |  |  |  |

Other lines, results leading:

| IC50 [1] | IC50 (IFNγ; Homo sapiens, PBMC) | IC50 (IL-4; Homo sapiens, PBMC) | IC50 (IL-13; Homo sapiens, PBMC) | IC50 (IL-13) | IC50 (IFNγ) | IC50 (IL-4) | SMILES |
| --- | --- | --- | --- | --- | --- | --- | --- |
| 2.81 nM | 3.62 nM | 68 nM | 446 nM |  |  |  | CCOc1cc(-c2cncc(C3COB(O)C3)n2)ccc1OC (stereo not shown) [Example 56, 4-(6-(3-ethoxy-4-methoxyphenyl)pyrazin-2-yl)-1,2-oxaborolan-2-ol] |
| 0.37 nM | 1.28 nM | 29.2 nM | 175 nM |  |  |  | COc1ccc(-c2cccc(C3COB(O)C3)c2)cc1OCCCF (stereo not shown) [Example 40, 4-(3′-(3-fluoropropoxy)-4′-methoxy-[1,1′-biphenyl]-3-yl)-1,2-oxaborolan-2-ol] |
| 1.21 nM | 23.8 nM | 24.4 nM | 757 nM |  |  |  | CCCOc1cccc(-c2cncc(C3COB(O)C3)c2)c1 (single isomer, unassigned) [Example 146, 4-(5-(3-propoxyphenyl)pyridin-3-yl)-1,2-oxaborolan-2-ol] |
| 8.57 nM | 14.4 nM | 279 nM | 1140 nM |  |  |  | COc1cnc(-c2cccc(C3COB(O)C3)c2)cc1OC (stereo not shown) [Example 174, 4-(3-(4,5-dimethoxypyridin-2-yl)phenyl)-1,2-oxaborolan-2-ol] |
